Earlier results, collected in publication PMC7362765 (Accounts of chemical research, 2019).

Test system: DF3
Assay: oxidation to quinone […], saturation kinetics
Assay type: biochemical, synthetic construct
Details: diiron form, ambient O2; recounted from the authors' own ref 19

CC(C)(C)c1cc(O)c(O)c(C(C)(C)C)c1 [compound 6, 3,5-di-tert-butylcatechol]
Km: 2100 µM
